“And” between values parts separate entries of the source, which are not always exact repeats. Equal entries are not always repeated. Toxic doses and inconclusive results are not listed.
Tested on: CD2F1 mice, L1210 leukemia ip, survival T/C
Assay: NCI In Vivo Anticancer Drug Screen. Data for tumor model L1210 Leukemia (intraperitoneal) in CD2F1 (CDF1) mice
Details: higher = longer survival
Summary of the method: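 Ratio T/C, where T is the treated-group value and C the vehicle-dosed control value, from mice implanted with a transplantable tumor.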

[1] = endpoint: mean survival time, dose: 100.0 mg/kg/injection, schedule: Q01DX001 (ip), vehicle: saline with Tween-80
[2] = endpoint: mean survival time, dose: 50.0 mg/kg/injection, schedule: Q01DX009 (ip), vehicle: saline with Tween-80
[3] = endpoint: mean survival time, dose: 100.0 mg/kg/injection, schedule: Q01DX009 (ip), vehicle: saline with Tween-80
[4] = endpoint: mean survival time, dose: 200.0 mg/kg/injection, schedule: Q01DX009 (ip), vehicle: saline with Tween-80

O=S(=O)(O)C(Nc1ccccn1)c1ccccc1 (stereo unspecified)
T/C (endpoint: mean survival time, dose: 25.0 mg/kg/injection, schedule: Q01DX001 (ip), vehicle: saline with Tween-80): 98 % of control | T/C (endpoint: mean survival time, dose: 50.0 mg/kg/injection, schedule: Q01DX001 (ip), vehicle: saline with Tween-80): 106 % of control | T/C [1]: 106 % of control

O=c1c(Cl)c(Cl)cnn1-c1ccc([N+](=O)[O-])cc1[N+](=O)[O-]
T/C (endpoint: mean survival time, dose: 100.0 mg/kg/injection, schedule: Q01DX001 (ip), vehicle: other): 88 % of control | T/C (endpoint: mean survival time, dose: 200.0 mg/kg/injection, schedule: Q01DX001 (ip), vehicle: other): 88 % of control | T/C (endpoint: mean survival time, dose: 400.0 mg/kg/injection, schedule: Q01DX001 (ip), vehicle: other): 94 % of control

CCCCSP(=O)(CCl)SCCCC
T/C (endpoint: mean survival time, dose: 25.0 mg/kg/injection, schedule: Q04DX002 (ip), vehicle: saline with Tween-80): 93 % of control | T/C (endpoint: mean survival time, dose: 50.0 mg/kg/injection, schedule: Q04DX002 (ip), vehicle: saline with Tween-80): 97 % of control | T/C (endpoint: mean survival time, dose: 100.0 mg/kg/injection, schedule: Q04DX002 (ip), vehicle: saline with Tween-80): 93 % of control

c1ccc2c(c1)[nH]c1c2c[n+]2c3c(cccc13)CCC2
T/C (endpoint: mean survival time, dose: 6.25 mg/kg/injection, schedule: Q01DX001 (ip), vehicle: saline): 101 % of control | T/C (endpoint: mean survival time, dose: 12.5 mg/kg/injection, schedule: Q01DX001 (ip), vehicle: saline): 107 % of control

N#C/C(=C\c1ccc(-c2ccccc2)cc1)c1ccccc1
T/C (endpoint: mean survival time, dose: 200.0 mg/kg/injection, schedule: Q04DX003 (ip), vehicle: saline with Tween-80): 86 % of control | T/C (endpoint: mean survival time, dose: 400.0 mg/kg/injection, schedule: Q04DX003 (ip), vehicle: saline with Tween-80): 95 % of control

O=C(CBr)c1cccc(OC(=O)c2ccccc2)c1
T/C (endpoint: mean survival time, dose: 12.5 mg/kg/injection, schedule: Q01DX009 (ip), vehicle: saline with Tween-80): 100 % of control | T/C (endpoint: mean survival time, dose: 12.5 mg/kg/injection, schedule: Q04DX003 (ip), vehicle: saline with Tween-80): 107 % of control | T/C (endpoint: mean survival time, dose: 25.0 mg/kg/injection, schedule: Q01DX009 (ip), vehicle: saline with Tween-80): 100 % of control | T/C (endpoint: mean survival time, dose: 25.0 mg/kg/injection, schedule: Q04DX003 (ip), vehicle: saline with Tween-80): 102 % of control | T/C (endpoint: mean survival time, dose: 50.0 mg/kg/injection, schedule: Q04DX003 (ip), vehicle: saline with Tween-80): 113 % of control

C[Si](C)(C)/C(=N/Nc1ccc([N+](=O)[O-])cc1[N+](=O)[O-])c1ccccc1
T/C (endpoint: mean survival time, dose: 100.0 mg/kg/injection, schedule: Q01DX001 (ip), vehicle: Klucel (hydroxypropylcellulose) (HPC)): 97 % of control | T/C (endpoint: mean survival time, dose: 200.0 mg/kg/injection, schedule: Q01DX001 (ip), vehicle: Klucel (hydroxypropylcellulose) (HPC)): 95 % of control | T/C (endpoint: mean survival time, dose: 400.0 mg/kg/injection, schedule: Q01DX001 (ip), vehicle: Klucel (hydroxypropylcellulose) (HPC)): 92 % of control

Cc1cc2[nH]c(=O)[nH]c2cc1C
T/C [2]: 103 % of control | T/C [3]: 94 % of control | T/C [4]: 102 % of control

CC(=O)[c-]1[c-][c-][c-][c-]1.[Fe+2].[c-]1[c-][c-][cH-][c-]1
T/C (endpoint: mean survival time, dose: 200.0 mg/kg/injection, schedule: Q01DX001 (ip), vehicle: saline): 102 % of control | T/C (endpoint: mean survival time, dose: 400.0 mg/kg/injection, schedule: Q01DX001 (ip), vehicle: saline): 100 % of control

CCC(=O)C(C)(C)c1ccccc1 (tested in a mixture with another compound)
T/C [1]: 110 % of control | T/C (endpoint: mean survival time, dose: 200.0 mg/kg/injection, schedule: Q01DX001 (ip), vehicle: saline with Tween-80): 98 % of control

C=CCC(O)CCCC (stereo unspecified)
T/C [2]: 103 % of control | T/C [3]: 103 % of control | T/C [4]: 103 % of control

Cc1ccc2cc(O)ccc2c1
T/C [2]: 97 % of control | T/C [3]: 98 % of control

CC[C@@]1(OC(=O)C(N)CCCCN)C(=O)OCc2c1cc1n(c2=O)Cc2cc3ccccc3nc2-1 (stereo partly specified)
T/C (endpoint: median survival time, dose: 7.29 mg/kg/injection, schedule: Q04DX002 (ip), vehicle: water): 114 % of control | T/C (endpoint: median survival time, dose: 10.94 mg/kg/injection, schedule: Q04HX004 (iv), vehicle: water): 165 % of control and 178 % of control | T/C (endpoint: median survival time, dose: 14.58 mg/kg/injection, schedule: Q04DX002 (ip), vehicle: water): 122 % of control | T/C (endpoint: median survival time, dose: 21.87 mg/kg/injection, schedule: Q04HX004 (iv), vehicle: water): 197 % of control and 201 % of control | T/C (endpoint: median survival time, dose: 29.17 mg/kg/injection, schedule: Q04DX002 (ip), vehicle: water): 188 % of control and 204 % of control | T/C (endpoint: median survival time, dose: 58.33 mg/kg/injection, schedule: Q04DX002 (ip), vehicle: water): 231 % of control and 253 % of control | T/C (endpoint: median survival time, dose: 116.7 mg/kg/injection, schedule: Q04DX002 (ip), vehicle: water): 214 % of control

FC(F)(F)/C([S-])=C(/[S-])C(F)(F)F.N#[O+].[Mn].[c-]1[c-][c-][cH-][c-]1
T/C (endpoint: mean survival time, dose: 75.0 mg/kg/injection, schedule: Q01DX001 (ip), vehicle: other): 103 % of control
